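How tested: cells in 96-well plates exposed to compound for 48 hours at five concentrations. At the TGI there is no net growth.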
How the values were obtained:
Experiment in all cases: growth of human tumour cells (NCI), 48 h
786-0 renal = tested on: 786-0 renal
A549 NSCLC = tested on: A549 NSCLC
ACHN renal = tested on: ACHN renal
CCRF-CEM leukemia = tested on: CCRF-CEM leukemia
COLO 205 colon = tested on: COLO 205 colon
DLD-1 colon = tested on: DLD-1 colon
EKVX NSCLC = tested on: EKVX NSCLC
HCC-2998 colon = tested on: HCC-2998 colon
HCT-116 colon = tested on: HCT-116 colon
HCT-15 colon = tested on: HCT-15 colon
HL-60(TB) leukemia = tested on: HL-60(TB) leukemia
HOP-18 NSCLC = tested on: HOP-18 NSCLC
HOP-62 NSCLC = tested on: HOP-62 NSCLC
HOP-92 NSCLC = tested on: HOP-92 NSCLC
HT29 colon = tested on: HT29 colon
KM20L2 colon = tested on: KM20L2 colon
LOX IMVI melanoma = tested on: LOX IMVI melanoma
LXFL 529 NSCLC = tested on: LXFL 529 NSCLC
M19-MEL melanoma = tested on: M19-MEL melanoma
MALME-3M melanoma = tested on: MALME-3M melanoma
MOLT-4 leukemia = tested on: MOLT-4 leukemia
NCI-H226 lung = tested on: NCI-H226 lung
NCI-H23 lung = tested on: NCI-H23 lung
NCI-H460 lung = tested on: NCI-H460 lung
OVCAR-3 ovarian = tested on: OVCAR-3 ovarian
OVCAR-5 ovarian = tested on: OVCAR-5 ovarian
OVCAR-8 ovarian = tested on: OVCAR-8 ovarian
RPMI-8226 leukemia = tested on: RPMI-8226 leukemia
RXF 393 renal = tested on: RXF 393 renal
RXF-631 renal = tested on: RXF-631 renal
SF-268 CNS = tested on: SF-268 CNS
SF-295 CNS = tested on: SF-295 CNS
SF-539 CNS = tested on: SF-539 CNS
SK-MEL-2 melanoma = tested on: SK-MEL-2 melanoma
SK-MEL-28 melanoma = tested on: SK-MEL-28 melanoma
SK-OV-3 ovarian = tested on: SK-OV-3 ovarian
SN12C renal = tested on: SN12C renal
SNB-19 CNS = tested on: SNB-19 CNS
SNB-75 CNS = tested on: SNB-75 CNS
SNB-78 CNS = tested on: SNB-78 CNS
SR leukemia = tested on: SR leukemia
SW-620 colon = tested on: SW-620 colon
TK-10 renal = tested on: TK-10 renal
U251 CNS = tested on: U251 CNS
UACC-257 melanoma = tested on: UACC-257 melanoma
UACC-62 melanoma = tested on: UACC-62 melanoma
UO-31 renal = tested on: UO-31 renal
XF 498 CNS = tested on: XF 498 CNS
A498 renal = tested on: A498 renal
BT-549 breast = tested on: BT-549 breast
CAKI-1 renal = tested on: CAKI-1 renal
DMS 114 small cell lung = tested on: DMS 114 small cell lung
DMS 273 small cell lung = tested on: DMS 273 small cell lung
DU-145 prostate = tested on: DU-145 prostate
IGROV1 ovarian = tested on: IGROV1 ovarian
K-562 leukemia = tested on: K-562 leukemia
KM12 colon = tested on: KM12 colon
M14 melanoma = tested on: M14 melanoma
MCF7 breast = tested on: MCF7 breast
MDA-MB-435 = tested on: MDA-MB-435
NCI-H522 lung = tested on: NCI-H522 lung
OVCAR-4 ovarian = tested on: OVCAR-4 ovarian
PC-3 prostate = tested on: PC-3 prostate
SK-MEL-5 melanoma = tested on: SK-MEL-5 melanoma
T-47D breast = tested on: T-47D breast

## CCOC(=O)NC(=O)c1cn(CCSCCOC(=O)NCCCCCCNC(=O)OCCSCCn2cc(C(=O)NC(=O)OCC)c(=O)n(C)c2=O)c(=O)n(C)c1=O
786-0 renal
  TGI: 79.8 µM
A549 NSCLC
  TGI: > 100 µM
ACHN renal
  TGI: > 100 µM
CCRF-CEM leukemia
  TGI: > 100 µM
COLO 205 colon
  TGI: > 100 µM
DLD-1 colon
  TGI: > 100 µM
EKVX NSCLC
  TGI: > 100 µM
HCC-2998 colon
  TGI: > 100000 nM
HCT-116 colon
  TGI: 52.6 µM
HCT-15 colon
  TGI: > 100 µM
HL-60(TB) leukemia
  TGI: 43 µM
HOP-18 NSCLC
  TGI: 1.02 µM
HOP-62 NSCLC
  TGI: > 100 µM
HOP-92 NSCLC
  TGI: > 100 µM
HT29 colon
  TGI: > 100 µM
KM20L2 colon
  TGI: > 100 µM
LOX IMVI melanoma
  TGI: > 100 µM
LXFL 529 NSCLC
  TGI: > 100 µM
M19-MEL melanoma
  TGI: 51.3 µM
MALME-3M melanoma
  TGI: 72.2 µM
MOLT-4 leukemia
  TGI: > 100 µM
NCI-H226 lung
  TGI: 73.8 µM
NCI-H23 lung
  TGI: > 100 µM
NCI-H460 lung
  TGI: > 100 µM
OVCAR-3 ovarian
  TGI: > 100 µM
OVCAR-5 ovarian
  TGI: > 100 µM
OVCAR-8 ovarian
  TGI: 65.9 µM
RPMI-8226 leukemia
  TGI: 66.8 µM
RXF 393 renal
  TGI: > 100 µM
RXF-631 renal
  TGI: 64 µM
SF-268 CNS
  TGI: > 100 µM
SF-295 CNS
  TGI: > 100 µM
SF-539 CNS
  TGI: 80.1 µM
SK-MEL-2 melanoma
  TGI: > 100 µM
SK-MEL-28 melanoma
  TGI: > 100 µM
SK-OV-3 ovarian
  TGI: > 100 µM
SN12C renal
  TGI: > 100 µM
SNB-19 CNS
  TGI: > 100 µM
SNB-75 CNS
  TGI: > 100 µM
SNB-78 CNS
  TGI: > 100 µM
SR leukemia
  TGI: > 100 µM
SW-620 colon
  TGI: > 100 µM
TK-10 renal
  TGI: > 100 µM
U251 CNS
  TGI: 40.3 µM
UACC-257 melanoma
  TGI: > 100 µM
UACC-62 melanoma
  TGI: > 100 µM
UO-31 renal
  TGI: > 100 µM
XF 498 CNS
  TGI: 85.4 µM

## CCOC(=O)c1c(CN2CCNCC2)nc2ccc(Cl)cc2c1-c1ccccc1
786-0 renal
  TGI: 3.15 µM
A498 renal
  TGI: 23.4 µM
A549 NSCLC
  TGI: 17.7 µM
ACHN renal
  TGI: 12.9 µM
BT-549 breast
  TGI: 27 µM
CAKI-1 renal
  TGI: 8.11 µM
CCRF-CEM leukemia
  TGI: 8.21 µM
COLO 205 colon
  TGI: 4.16 µM
DLD-1 colon
  TGI: 10.1 µM
DMS 114 small cell lung
  TGI: 4.05 µM
DMS 273 small cell lung
  TGI: 5.56 µM
DU-145 prostate
  TGI: 31.9 µM
EKVX NSCLC
  TGI: 23.4 µM
HCC-2998 colon
  TGI: 3000 nM
HCT-116 colon
  TGI: 10.2 µM
HCT-15 colon
  TGI: 10.5 µM
HL-60(TB) leukemia
  TGI: 4.38 µM
HOP-18 NSCLC
  TGI: 15.5 µM
HOP-62 NSCLC
  TGI: 21.6 µM
HOP-92 NSCLC
  TGI: 3.16 µM
HT29 colon
  TGI: 3.68 µM
IGROV1 ovarian
  TGI: 17.1 µM
K-562 leukemia
  TGI: 7.03 µM
KM12 colon
  TGI: 7.18 µM
KM20L2 colon
  TGI: 6.87 µM
LOX IMVI melanoma
  TGI: 3.26 µM
LXFL 529 NSCLC
  TGI: 3.2 µM
M14 melanoma
  TGI: 3.85 µM
M19-MEL melanoma
  TGI: 3.61 µM
MALME-3M melanoma
  TGI: 3.56 µM
MCF7 breast
  TGI: 28.6 µM
MDA-MB-435
  TGI: 8.21 µM
MOLT-4 leukemia
  TGI: 4.57 µM
NCI-H226 lung
  TGI: 33.4 µM
NCI-H23 lung
  TGI: 25.7 µM
NCI-H460 lung
  TGI: 6.32 µM
NCI-H522 lung
  TGI: 9.41 µM
OVCAR-3 ovarian
  TGI: 20.2 µM
OVCAR-4 ovarian
  TGI: 12.3 µM
OVCAR-5 ovarian
  TGI: 36 µM
OVCAR-8 ovarian
  TGI: 11.7 µM
PC-3 prostate
  TGI: 12.4 µM
RPMI-8226 leukemia
  TGI: 4.89 µM
RXF 393 renal
  TGI: 10.7 µM
RXF-631 renal
  TGI: 6.68 µM
SF-268 CNS
  TGI: 17.9 µM
SF-295 CNS
  TGI: 5.97 µM
SF-539 CNS
  TGI: 7.56 µM
SK-MEL-2 melanoma
  TGI: 3.36 µM
SK-MEL-28 melanoma
  TGI: 7.04 µM
SK-MEL-5 melanoma
  TGI: 2160 nM
SK-OV-3 ovarian
  TGI: 21.3 µM
SN12C renal
  TGI: 15 µM
SNB-19 CNS
  TGI: 28.4 µM
SNB-75 CNS
  TGI: 9.5 µM
SNB-78 CNS
  TGI: 24.7 µM
SR leukemia
  TGI: 4.51 µM
SW-620 colon
  TGI: 4.87 µM
T-47D breast
  TGI: 20.6 µM
TK-10 renal
  TGI: 10.8 µM
U251 CNS
  TGI: 26.7 µM
UACC-257 melanoma
  TGI: 3.62 µM
UACC-62 melanoma
  TGI: 3.76 µM
UO-31 renal
  TGI: 9.69 µM
XF 498 CNS
  TGI: 9.43 µM

From PubChem BioAssay (NCI)
